According to ChEMBL document CHEMBL5532725, “SARS-CoV-2 Main Protease Inhibitors That Leverage Unique Interactions with the Solvent Exposed S3 Site of the Enzyme” (ACS Med Chem Lett, 2024):

Target: Replicase polyprotein 1ab (Severe acute respiratory syndrome coronavirus 2, UniProt P0DTD1)
Assay: Inhibition of SARS-CoV-2 MPro preincubated for 30 mins followed by substrate addition by fluorescence based assay

Structure (SMILES)	IC50
CC1(C)[C@@H]2[C@@H](C(=O)N[C@H](C#N)C[C@@H]3CCNC3=O)N(C(=O)[C@@H](NC(=O)C(F)(F)F)c3ccc(Cl)cc3)C[C@@H]21	420 nM
CC1(C)[C@@H]2[C@@H](C(=O)N[C@H](C=O)C[C@@H]3CCNC3=O)N(C(=O)OC(c3ccc(F)cc3)c3ccc(F)cc3)C[C@@H]21	94 nM
CC1(C)[C@@H]2[C@@H](C(=O)N[C@H](C=O)C[C@@H]3CCNC3=O)N(C(=O)[C@H](CC3CCCCC3)NC(=O)OCc3ccccc3)C[C@@H]21	250 nM
CC1(C)[C@@H]2[C@@H](C(=O)N[C@H](C=O)C[C@@H]3CCNC3=O)N(C(=O)C(c3ccc(Cl)cc3)c3ccc(Cl)cc3)C[C@@H]21	280 nM
CC1(C)[C@@H]2[C@@H](C(=O)N[C@H](C=O)C[C@@H]3CCNC3=O)N(C(=O)N(c3ccc(Cl)cc3)c3ccc(Cl)cc3)C[C@@H]21	450 nM
CC1(C)[C@@H]2[C@@H](C(=O)N[C@H](C=O)C[C@@H]3CCNC3=O)N(C(=O)OC(c3ccccc3)c3ccccc3)C[C@@H]21	96 nM
CC1(C)[C@@H]2[C@@H](C(=O)N[C@H](C=O)C[C@@H]3CCNC3=O)N(C(=O)C(Oc3ccc(Cl)cc3)Oc3ccc(Cl)cc3)C[C@@H]21	280 nM
